From patent US7432087B2, “Method for preparing (2S, 3R, 4S)-4-hydroxyisoleucine and analogues thereof” (Centre National de la Recherche Scientifque, priority 2002, dated 2008)

Key:
[1] = background statement with literature references; cited from earlier work

Row | SMILES | melting point | insulinotropic activity [1]
1 | C[C@@H]([C@H](C)O)[C@@H](NCc1ccccc1)C(=O)O [(2R)-N-Bn-1, (2R,3R,4S)-N-benzyl-4-hydroxyisoleucine] | 193 to 194 °C (dec.) | –
2 | C[C@@H]([C@H](C)O)[C@H](N)C(=O)O [compound 1, (2S,3R,4S)-4-hydroxyisoleucine] | – | possesses an insulinotropic activity
